Entries after “also recorded” stand apart in the source; their conditions may differ.
Key:
[1] = system: pathologically altered human aortas; assay: Ex vivo test on the aorta model (stent implanted in the explant, 2 weeks culture, PCR); format: cell-based
Description: The ex vivo test on pathologically altered human arteries and, in particular, on human aortas is a novel test model that makes it possible to better predict the clinical efficacy of biologically active coatings of medical implants such as stents or balloon catheters. Until now, it was not possible to perform this prediction in a reliable manner. […] These failures have engendered doubt in the benefit of the standard animal models, since, despite additional serial examinations and comprehensive screenings, the clinical efficacy of a new substance is uncertain even though preclinical results were positive. Until now there was no test model available that investigated the antiproliferative effect of new drugs in the complex biological environment of an arteriosclerotic vessel. On the basis of this novel test model, it is now possible to obtain mechanistic insights into the origin of a restenosis after stent implantation and to develop a therapy specific for the cause thereof
The special test procedure is based on the use of human pathological vascular tissue obtained directly within one hour after operation (vasectomy). Immediately after removal, the vascular preparations are placed in a sterile phosphate buffer (PBS) at room temperature, and are transported. […]

[2] = cited from earlier work
[3] = cited from earlier work; remark: listed apart in the source

Row | Molecule | proliferation of smooth muscle cells (proliferation markers KI-67 and PCNA) ([1]; Pyr3 eluted from polymeric stent coating (embodiment 1) compared with uncoated 316L stent, after stent implantation with overexpansion, FIGS. 2 and 3) | total number of smooth muscle cells (expression of hSMTN and hAlpha-actin) ([1]; stent with Pyr3 (embodiment 1) compared with uncoated 316L stent, after stent implantation, FIG. 2) | antirestenotic effect / reduction of restenosis in clinical practice [2] | efficacy in the experimental animal model [3]
1 | CCOC(=O)c1cnn(-c2ccc(NC(=O)C(Cl)=C(Cl)Cl)cc2)c1C(F)(F)F [Pyr3, ethyl-1-(4-(2,3,3-trichloroacrylamide)phenyl)-5-(trifluoromethyl)-1H-pyrazole-4-carboxylate] | can be inhibited; also recorded: lower overall proliferation | does not lead to the otherwise common drop in total number of smooth muscle cells | – | –
2 | CC(=O)Oc1ccccc1C(=O)O [aspirin] | – | – | did not reduce restenosis | good efficacy
3 | CC[C@@H]1/C=C(\C)C[C@H](C)C[C@H](OC)[C@H]2O[C@@](O)(C(=O)C(=O)N3CCCC[C@H]3C(=O)O[C@H](/C(C)=C/[C@@H]3CC[C@H](Cl)[C@H](OC)C3)[C@H](C)[C@@H](O)CC1=O)[C@H](C)C[C@@H]2OC [pimecrolimus] | – | – | did not reduce restenosis | good efficacy
4 | heparin | – | – | did not reduce restenosis | good efficacy

Source: US20120239140A1, “MEDICAL PRODUCT COMPRISING AN ACTIVE COATING” (priority 2011, published 2012)
